Where no end group is shown, it is not given here.
Legend:
[1] = test system: leukocytes in blood; assay: Corneal epithelial burn model: number of leukocytes in blood; assay type: in vivo, New Zealand white rabbit; conditions: rabbit, alkali burn of cornea; 5 nmole/kg SP i.v. twice; after three days after burning; vs continuously increased without SP; FIG. 6
Method: Ketalar (50 mg/ml, Yuhan Corporation) and Rompun (23.32 mg (Xylazine hydrochloride)/ml, Bayer Korea Corporation) were mixed in a rate of 2:1, and then total 900 μl (Ketalar 600 μl: Rompun 300 μl) was injected into muscles of rabbits (New Zealand white rabbit, Male, 2.5 kg, n=4). After the intramuscular injection, 300 μl (Ketalar 200 μl: Rompun 100 μl) of the same anesthetic drug was injected in the rabbit's ear vein.
A 6 mm paper disc fully wetted by 1N NaOH was contacted to a limbus part of rabbit's cornea for 10 seconds. After alkali burning, corneal epithelium was removed in a size of the paper disc. The rabbit's eyes were quickly washed with a physiological saline immediately after alkali burning. At the same time, 5 nmole/kg of SP dissolved in a physiological saline was intravenously injected, and then after 24 hours, was injected once more (immediately after burning and at 24 hours after burning). For the control, PBS with the same volume was injected (injection Volume: 1 ml). […]
2 ml of the whole 10 ml was used for counting blood cells and the number of leukocytes was analyzed in Neodin (Company for analysis of blood cells). Concretely, 2 ml of blood was added to a vial including EDTA; it was well mixed; then the whole leukocyte level was analyzed in an automatic analyzer (SYSMEX XE-2100 automatic analyzer from SYSMEX Corporation [Japan]); and then the results were shown in FIG. 6.

[2] = test system: regulatory T cells (CD4+, FoxP3+) and anti-inflammatory macrophage M2 (CD11b+, CD206+); assay: Radiation-irradiating model: FACS of regulatory T cells and macrophage M2 in mesentric lymph nodes and small intestine; assay type: in vivo, C57b1/6 mice; conditions: mice, 8 Gy, SP i.v., 4.5 hours after irradiation
Method: 5 nmole/kg of SP dissolved in a physiological saline was injected to a tail vein of C57b1/6 mice (8 weeks, sex; male, n=4, Average weight; 20 g) one day before irradiation and immediately after irradiation. The irradiation was performed at 8 Gy radiation in a Gamma lay radiation irradiator (^137Cs, Atomic Energy of Canada, Mississauga, Canada). The mice were sacrificed at 4.5 hours and one day after irradiation, and then the blood was collected. The part of the blood was used for analyzing CBC (Complete Blood Count) and the remaining blood was used to isolate serum and then analyze cytokines
The mice were sacrificed at 4.5 hours after irradiation using the same method as Example 3; mesentric lymph nodes were taken for isolating mononuclear cells; then isolated mononuclear cells were fixed at 3.7% formalin for 1 hour; and then anti-inflammatory-related T cells and macrophages were analyzed through FACS (BD FACSCalibur™: 343098, BD Biosciences, Canada) analysis.
Specifically, the mice were sacrificed at 4.5 hours after 8 Gy radiation; the abdomens were cut to open; mesentric lymph nodes and small intestines were taken and then were cut fine; then chopped by using operating scissors; then were treated with collagenase type I (Worthington, USA) and DNase I (Sigma, USA) at 37° C. for 20 minutes; washed, respectively; mononuclear cells were isolated; and then fixed in 3.7% formalin for 1 hour. The mesentric lymph nodes mononuclear cells fixed in formalin were double-stained with CD4 (130-091-608, Miltenyi Biotec, Germany) and FoxP3 (130-093-013, Miltenyi Biotec, Germany) antibody, and then regulatory T cells were analyzed through FACS analysis. In addition, an anti-inflammatory macrophage M2 analysis was performed through FACS analysis after double staining with CD11b (130-081-201, Miltenyi Biotec, Germany) and CD206 (ab64693, abcam, UK) antibody. Since T cells or macrophages in the small intestine mononuclear cells fixed in a formalin accounted for less than 1% of the whole cells, FACS analysis was performed after isolating CD3 (130-092-962, Miltenyi Biotec, Germany)+ cell and CD11b+ cell with MACS isolating method as disclosed in the previous Example 1-(2), respectively. Regulatory T cells were analyzed by double-staining the cells isolated by CD3 with CD4 and FoxP3 antibody and anti-inflammatory macrophage M2 analysis was performed by double-staining the cells isolated by CD11b with CD11b and CD206 antibody.

## Substance-P (RPKPQQFFGLM; not fully specified; ends and bridges not checked; UniProt P20366 58-68, looked up)
[1]
  number of leukocytes in blood (increase % based on Day 0-level): sharply decreased
[2]; mesentric lymph nodes, FIG. 10
  anti-inflammatory macrophage M2 (CD11b+, CD206+): increased
  regulatory T cells (CD4+, FoxP3+): increased
[2]; small intestines, FIG. 11
  anti-inflammatory macrophage M2 (CD11b+, CD206+): increased
  regulatory T cells (CD4+, FoxP3+): increased
